According to US9907737B2, “Composition comprising ferulic acid ethyl ester and aryl alkanol” (L'AIR LIQUIDE, SOCIETE ANONYME POUR L'ETUDE ET …, priority 2013, dated 2018):
Marks after values point to notes of the source that are not given here.

Assays:
S. aureus ATCC: 6538 = assay: Bacterial count reduction test (method 1), S. aureus; type: cell-based, Staphylococcus aureus; details: o/w cream, initial bacterial count 1 × 10^9
Protocol: (§1) Method 1: Bacterial Count Reduction Test
(§2) The aim of this bacterial count reduction test is to determine suitable preservatives and reaction times for samples injected in the laboratory.
(§3) Staphylococcus aureus, Escherichia coli or Pseudomonas aeruginosa, Candida albicans, Aspergillus brasiliensis
(§4) From a 24-hour CS-angular agar culture (I subculture) of Staphylococcus aureus/Escherichia coli 24-hour CSL-cultures (II subculture) are created. The incubation is carried out at 37° C. The titer of the bacterial suspension is about 10^9 CFU/ml.
(§5) The titres of the respectively produced test organism suspensions are determined by means of a dilution series in physiological NaCl and recorded.
(§6) The samples are displaced with different concentrations of suitable preservatives. For each test bacterium a dilution series is required. The samples are injected individually with the respective test organism suspension and stirred well:
(§7) 25 g samples=0.1 ml bacterial suspension
(§8) 50 g samples=0.2 ml bacterial suspension.
(§9) After the indicated reaction times the samples are firstly stirred homogenously with a sterile glass rod and then spread onto CSA or SA agar. The bacteria samples are spread onto CSA and incubated for 48 hours at 37° C. The mould and yeast samples are spread onto SA agar and incubated for 48 hours at 37° C. (Candida albicans) and at 25° C. (Aspergillus brasiliensis).

E. coli ATCC: 11229 = assay: Bacterial count reduction test (method 1), E. coli; type: cell-based, Escherichia coli; details: o/w cream, initial bacterial count 1.3 × 10^9
Protocol: as §1, §2, §3, §4, §5, §6, §7, §8, §9

C. albicans ATCC: 10231 = assay: Bacterial count reduction test (method 1), C. albicans; type: cell-based, Candida albicans
Protocol: as §1, §2, §3
A 4 day old Candida albicans culture on SA-agar (II subculture) is washed with 5 ml physiological NaCl and adjusted according to a barium sulphate standard (cf. DVG Guidelines). The titer of the Candida albicans suspension is 10^8 CFU/ml.
as §5, §6, §7, §8, §9

[1] = test system: A. brasiliensis ATCC: 16404; assay: Bacterial count reduction test (method 1), A. brasiliensis; type: cell-based, Aspergillus brasiliensis
Protocol: as §1, §2, §3
A 7 to 14 days old Aspergillus brasiliensis culture on SA agar (25° C.±1° C.) is washed with 5 ml physiological NaCl, filtered by a glass funnel with glass wool and filled with physiological NaCl to 100 ml. The titre of the Aspergillus brasiliensis suspension is about 10^7 CFU/ml.
as §5, §6, §7, §8, §9

[2] = test system: Staphylococcus aureus, Escherichia coli or Pseudomonas aeruginosa, Candida albicans, Aspergillus brasiliensis; assay: Bacterial count reduction test (method 1), summary in words over the test organisms; type: cell-based; details: Example 3, Table 4; o/w-Lotion; concentration of 2%
Protocol: as §1, §2, §3, §6, §9

[3] = o/w cream, initial bacterial count 4.1 × 10^8
[4] = o/w-Lotion, initial bacterial count 5.4 × 10^8
[5] = o/w cream, initial bacterial count 1.5 × 10^7
[6] = o/w-Lotion, initial bacterial count 7.7 × 10^7

COc1cc(/C=C/C(=O)O)ccc1O [0.1% ferulic acid, ferulic acid]
Growth of S. aureus ATCC: 6538 after 24 hours (S. aureus ATCC: 6538; 24 h): R (Surface covered About 10^6)
Growth of S. aureus ATCC: 6538 after 72 hours (S. aureus ATCC: 6538; 72 h): ++++ (Massive growth About 10^5)
Growth of S. aureus ATCC: 6538 after 168 hours (S. aureus ATCC: 6538; 168 h): ++++ (Massive growth About 10^5)
Growth of S. aureus ATCC: 6538 after 336 hours (S. aureus ATCC: 6538; 336 h): ++++ (Massive growth About 10^5)
Growth of E. coli ATCC: 11229 after 24 hours (E. coli ATCC: 11229; 24 h): ++++ (Massive growth About 10^5)
Growth of E. coli ATCC: 11229 after 72 hours (E. coli ATCC: 11229; 72 h): R (Surface covered About 10^6)
Growth of E. coli ATCC: 11229 after 168 hours (E. coli ATCC: 11229; 168 h): R (Surface covered About 10^6)
Growth of E. coli ATCC: 11229 after 336 hours (E. coli ATCC: 11229; 336 h): R (Surface covered About 10^6)
Growth of C. albicans ATCC: 10231 after 24 hours (C. albicans ATCC: 10231; [3]): R (Surface covered About 10^6)
Growth of C. albicans ATCC: 10231 after 72 hours (C. albicans ATCC: 10231; [3]): R (Surface covered About 10^6)
Growth of C. albicans ATCC: 10231 after 168 hours (C. albicans ATCC: 10231; [3]): ++++ (Massive growth About 10^5)
Growth of C. albicans ATCC: 10231 after 336 hours (C. albicans ATCC: 10231; [3]): ++++ (Massive growth About 10^5)
Growth of C. albicans ATCC: 10231 after 24 hours (C. albicans ATCC: 10231; [4]): R (Surface covered About 10^6)
Growth of C. albicans ATCC: 10231 after 72 hours (C. albicans ATCC: 10231; [4]): R (Surface covered About 10^6)
Growth of C. albicans ATCC: 10231 after 168 hours (C. albicans ATCC: 10231; [4]): ++++ (Massive growth About 10^5)
Growth of C. albicans ATCC: 10231 after 336 hours (C. albicans ATCC: 10231; [4]): ++++ (Massive growth About 10^5)
Growth of A. brasiliensis ATCC: 16404 after 24 hours [1, 5]: ++++ (Massive growth About 10^5)
Growth of A. brasiliensis ATCC: 16404 after 72 hours [1, 5]: ++++ (Massive growth About 10^5)
Growth of A. brasiliensis ATCC: 16404 after 168 hours [1, 5]: ++++ (Massive growth About 10^5)
Growth of A. brasiliensis ATCC: 16404 after 336 hours [1, 5]: ++++ (Massive growth About 10^5)
Growth of A. brasiliensis ATCC: 16404 after 24 hours [1, 6]: ++++ (Massive growth About 10^5)
Growth of A. brasiliensis ATCC: 16404 after 72 hours [1, 6]: ++++ (Massive growth About 10^5)
Growth of A. brasiliensis ATCC: 16404 after 168 hours [1, 6]: ++++ (Massive growth About 10^5)
Growth of A. brasiliensis ATCC: 16404 after 336 hours [1, 6]: ++++ (Massive growth About 10^5)
Effectiveness in bacterial count reduction test, in words [2]: inherent effectiveness
